Measurements as given in PubChem BioAssay (NCI).
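How tested: cells in 96-well plates exposed to compound for 48 hours at five concentrations. TGI denotes the concentration required for complete inhibition of growth.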

What was measured:
Experiment in all cases: DTP human tumour cell line panel, 48 h
[1] = test system: 786-0 renal
[2] = test system: A498 renal
[3] = test system: A549 NSCLC
[4] = test system: ACHN renal
[5] = test system: CAKI-1 renal
[6] = test system: CCRF-CEM leukemia
[7] = test system: COLO 205 colon
[8] = test system: DU-145 prostate
[9] = test system: EKVX NSCLC
[10] = test system: HCC-2998 colon
[11] = test system: HCT-116 colon
[12] = test system: HCT-15 colon
[13] = test system: HL-60(TB) leukemia
[14] = test system: HOP-62 NSCLC
[15] = test system: HOP-92 NSCLC
[16] = test system: HS 578T breast
[17] = test system: HT29 colon
[18] = test system: IGROV1 ovarian
[19] = test system: K-562 leukemia
[20] = test system: KM12 colon
[21] = test system: LOX IMVI melanoma
[22] = test system: M14 melanoma
[23] = test system: MALME-3M melanoma
[24] = test system: MCF7 breast
[25] = test system: MDA-MB-231 breast
[26] = test system: MDA-MB-435
[27] = test system: MDA-N
[28] = test system: MOLT-4 leukemia
[29] = test system: NCI-H226 lung
[30] = test system: NCI-H23 lung
[31] = test system: NCI-H460 lung
[32] = test system: NCI/ADR-RES ovarian
[33] = test system: OVCAR-3 ovarian
[34] = test system: OVCAR-4 ovarian
[35] = test system: OVCAR-5 ovarian
[36] = test system: OVCAR-8 ovarian
[37] = test system: PC-3 prostate
[38] = test system: RPMI-8226 leukemia
[39] = test system: RXF 393 renal
[40] = test system: SF-268 CNS
[41] = test system: SF-295 CNS
[42] = test system: SF-539 CNS
[43] = test system: SK-MEL-2 melanoma
[44] = test system: SK-MEL-28 melanoma
[45] = test system: SK-OV-3 ovarian
[46] = test system: SN12C renal
[47] = test system: SNB-19 CNS
[48] = test system: SNB-75 CNS
[49] = test system: SR leukemia
[50] = test system: SW-620 colon
[51] = test system: T-47D breast
[52] = test system: TK-10 renal
[53] = test system: U251 CNS
[54] = test system: UACC-257 melanoma
[55] = test system: UACC-62 melanoma
[56] = test system: UO-31 renal
[57] = test system: NCI-H522 lung
[58] = test system: SK-MEL-5 melanoma

O=C1NC2c3c(I)sc(I)c3/C(=N\O)C2O1 (centres undefined)
TGI [1]: 57.1 µM
TGI [2]: > 100 µM
TGI [3]: > 100 µM
TGI [4]: 33.6 µM
TGI [5]: > 100 µM
TGI [6]: 80.3 µM
TGI [7]: 48.8 µM
TGI [8]: > 100 µM
TGI [9]: 35.1 µM
TGI [10]: > 100 µM
TGI [11]: 75.4 µM
TGI [12]: > 100 µM
TGI [13]: 83.5 µM
TGI [14]: > 100 µM
TGI [15]: 68.1 µM
TGI [16]: 70.4 µM
TGI [17]: 33.4 µM
TGI [18]: 45 µM
TGI [19]: > 100 µM
TGI [20]: > 100 µM
TGI [21]: > 100 µM
TGI [22]: > 100 µM
TGI [23]: 50.2 µM
TGI [24]: > 100 µM
TGI [25]: 95.8 µM
TGI [26]: > 100 µM
TGI [27]: > 100 µM
TGI [28]: > 100 µM
TGI [29]: > 100 µM
TGI [30]: 56.8 µM
TGI [31]: > 100 µM
TGI [32]: 47.7 µM
TGI [33]: 40.2 µM
TGI [34]: 89.8 µM
TGI [35]: > 100 µM
TGI [36]: 43.4 µM
TGI [37]: > 100 µM
TGI [38]: > 100 µM
TGI [39]: 44.5 µM
TGI [40]: 67.8 µM
TGI [41]: > 100 µM
TGI [42]: 42.6 µM
TGI [43]: > 100 µM
TGI [44]: > 100 µM
TGI [45]: > 100 µM
TGI [46]: > 100 µM
TGI [47]: 58.2 µM
TGI [48]: > 100 µM
TGI [49]: > 100 µM
TGI [50]: 60.6 µM
TGI [51]: > 100 µM
TGI [52]: > 100 µM
TGI [53]: 76.9 µM
TGI [54]: > 100 µM
TGI [55]: > 100 µM
TGI [56]: 32.7 µM

COC(=O)Cc1cccc2c1CCC2=O
TGI [1]: > 100 µM
TGI [2]: > 100 µM
TGI [3]: > 100 µM
TGI [4]: > 100 µM
TGI [6]: > 100 µM
TGI [7]: > 100 µM
TGI [8]: > 100 µM
TGI [9]: > 100 µM
TGI [10]: > 100 µM
TGI [11]: > 100 µM
TGI [12]: > 100 µM
TGI [13]: > 100 µM
TGI [14]: > 100 µM
TGI [15]: > 100 µM
TGI [16]: > 100 µM
TGI [17]: > 100 µM
TGI [18]: > 100 µM
TGI [19]: > 100 µM
TGI [20]: > 100 µM
TGI [21]: > 100 µM
TGI [22]: > 100 µM
TGI [23]: > 100 µM
TGI [24]: > 100 µM
TGI [25]: > 100 µM
TGI [26]: > 100 µM
TGI [27]: > 100 µM
TGI [28]: > 100 µM
TGI [29]: > 100 µM
TGI [30]: > 100 µM
TGI [31]: > 100 µM
TGI [57]: > 100 µM
TGI [32]: > 100 µM
TGI [33]: > 100 µM
TGI [34]: > 100 µM
TGI [35]: > 100 µM
TGI [36]: > 100 µM
TGI [37]: > 100 µM
TGI [38]: > 100 µM
TGI [39]: > 100 µM
TGI [40]: > 100 µM
TGI [41]: > 100 µM
TGI [42]: > 100 µM
TGI [44]: > 100 µM
TGI [58]: > 100 µM
TGI [45]: > 100 µM
TGI [46]: > 100 µM
TGI [47]: > 100 µM
TGI [48]: > 100 µM
TGI [49]: > 100 µM
TGI [50]: > 100 µM
TGI [51]: > 100 µM
TGI [52]: > 100 µM
TGI [53]: > 100 µM
TGI [54]: > 100 µM
TGI [55]: > 100 µM
TGI [56]: > 100 µM

COC(=O)[C@]12CC[C@H]3CN(C(=O)OCc4ccccc4)[C@H]([C@H]31)[C@H](c1ccco1)N2
TGI [1]: > 100 µM
TGI [2]: 36.3 µM
TGI [3]: > 100 µM
TGI [4]: > 100 µM
TGI [5]: > 100 µM
TGI [6]: > 100 µM
TGI [7]: 40.9 µM
TGI [8]: > 100 µM
TGI [9]: > 100 µM
TGI [10]: > 100 µM
TGI [11]: > 100 µM
TGI [12]: 84.5 µM
TGI [13]: 84.4 µM
TGI [14]: > 100 µM
TGI [15]: > 100 µM
TGI [16]: > 100 µM
TGI [17]: > 100 µM
TGI [18]: > 100 µM
TGI [19]: > 100 µM
TGI [20]: > 100 µM
TGI [21]: > 100 µM
TGI [22]: > 100 µM
TGI [23]: 80.2 µM
TGI [24]: > 100 µM
TGI [25]: > 100 µM
TGI [26]: 61.8 µM
TGI [27]: > 100 µM
TGI [28]: 64.5 µM
TGI [29]: > 100 µM
TGI [30]: 42.2 µM
TGI [31]: > 100 µM
TGI [57]: 39.1 µM
TGI [32]: 51.7 µM
TGI [33]: > 100 µM
TGI [34]: 31.2 µM
TGI [35]: > 100 µM
TGI [36]: > 100 µM
TGI [37]: > 100 µM
TGI [38]: > 100 µM
TGI [39]: > 100 µM
TGI [40]: > 100 µM
TGI [41]: > 100 µM
TGI [42]: > 100 µM
TGI [43]: > 100 µM
TGI [44]: > 100 µM
TGI [58]: 37.3 µM
TGI [45]: > 100 µM
TGI [46]: > 100 µM
TGI [47]: > 100 µM
TGI [49]: > 100 µM
TGI [50]: > 100 µM
TGI [51]: > 100 µM
TGI [52]: > 100 µM
TGI [53]: > 100 µM
TGI [54]: 81.4 µM
TGI [55]: > 100 µM
TGI [56]: > 100 µM
